A compilation of properties of binary mixtures (doi:10.1021/acs.jced.0c00138)

Experiment: xn = mol fraction of the nth substance listed
Details: 101.3 kPa

CC[n+]1ccn(C)c1.O=S(=O)([N-]S(=O)(=O)C(F)(F)F)C(F)(F)F + CCCOCCO
x1 = 1
Details	speed of sound [m/s]
298.15 K	1239.6
303.15 K	1228.7
308.15 K	1218.2
313.15 K	1207.3
318.15 K	1196.8

CCCOCCO + CC[n+]1ccn(C)c1.O=S(=O)([N-]S(=O)(=O)C(F)(F)F)C(F)(F)F
speed of sound [m/s]
Details	298.15 K	303.15 K	308.15 K	313.15 K	318.15 K
x2 = 0.0479	1290.9	1275.1	–	1243.4	1228.5
x2 = 0.0964	1283.5	–	1253.7	1238.8	–
x2 = 0.1514	1278	1264.2	1249.6	1234.5	1220.2
x2 = 0.2034	1273.8	–	1245.7	–	–
x2 = 0.2917	1268	1255	1241.1	–	–
x2 = 0.3883	1263.2	1250.6	1237	1223.4	–
x2 = 0.4926	1258.1	–	1233.3	1220.8	1208.4
x2 = 0.5974	1252.8	1240.9	1229.2	1217.1	1205.2
x2 = 0.6927	1248	1236.4	1225	1214	1202.8
x2 = 0.7631	–	1232.8	1222	1211.3	1200.3
x2 = 0.8253	1241.9	1230.8	1220.5	1209.8	1199.5
x2 = 0.8945	1240.7	–	1219.2	1208.4	1198.4
x2 = 0.9518	1239.7	1229.2	1218.8	1207.7	1198
